Data: patent US20240325330A1, “NEW METHOD TO TREAT ACIDOSIS RELATED DISEASES WITH ACETOACETATE” (INSTITUT NATIONAL DE LA SANTÉ ET DE LA RECHERCHE MÉDICALE, priority 2021, published 2024)

Key:
[1] = test system: human monocytes differentiated into macrophages under lactic acidosis (LA-Mφ); test: Mitochondrial membrane potential (MitoTracker Green / Deep Red flow cytometry) in macrophages under lactic acidosis; type: cell-based; settings: 5 mM AcAc, 10 mM lactic acid (pHe 6.5), LA-Mφ+AcAc vs LA alone; data not shown
Method: Peripheral blood mononuclear cells (PBMC) were obtained from healthy human volunteers (Blood collection center, Angers, France; agreement ANG-2017-01) by standard density-gradient centrifugation on lymphocyte separation medium (Eurobio, Courtaboeuf, France). CD14+ monocytes were then isolated by positive magnetic cell-sorting (Miltenyi Biotec, Bergisch Gladbach, Germany). Monocytes (1×10^6 cells/mL) were cultured in complete medium (CM) consisting of RPMI 1640 (Lonza, Verviers, Belgium) supplemented with 10% fetal calf serum (FCS) (Eurobio), 2 mM L-glutamine, 1 mM sodium pyruvate, 0.1 mM non-essential amino acids, 10 mM HEPES, 100 U/mL penicillin and 100 μg/mL streptomycin (all from Lonza) in the presence of 50 ng/mL GM-CSF (R&D Systems, Minneapolis, MN). […]
Mitochondrial membrane potential was assessed by incubating with 10 nM MitoTracker Green and 5 nM MitoTracker DeepRed (Thermo Fisher Scientific, Waltham, MA) in PBS containing 1% (w/v) BSA in PBS (PBS/BSA) at 37° C. for 15 min. […] Flow cytometry data were acquired with a FACSCanto II flow cytometer (BD Biosciences, San Jose, CA) and analyzed with FlowJo software (Tree Star, Ashland, OR).

[2] = test system: human monocytes differentiated into macrophages under lactic acidosis (LA-Mφ); test: Intracellular ATP levels in macrophages under lactic acidosis; type: cell-based; settings: 5 mM AcAc, 10 mM lactic acid, FIG. 1A
Method: Peripheral blood mononuclear cells (PBMC) were obtained from healthy human volunteers (Blood collection center, Angers, France; agreement ANG-2017-01) by standard density-gradient centrifugation on lymphocyte separation medium (Eurobio, Courtaboeuf, France). CD14+ monocytes were then isolated by positive magnetic cell-sorting (Miltenyi Biotec, Bergisch Gladbach, Germany). […]
The intracellular levels of ATP in whole-cell lysates were determined with enzymatic assays (Abcam, Cambridge, UK), according to the manufacturer's instructions. ATP was quantified in (i) macrophages generated in the absence (Mφ) or presence of lactic acid (LA-Mφ) or of lactic acid and acetoacetate (LA-Mφ+AcAc), (ii) macrophages with or without depolarized mitochondria (“Depol” and “Pol” populations, respectively) isolated from day 3 LA-Mφ by flow cytometry using MitoTracker Green and MitoTracker Deep Red probes (purity>99%) and, (iii) PBMC isolated from septic shock patients (n=3) were cultured for 24 h in a medium containing 0.5 g/L glucose, supplemented with 5 mM of acetoacetate (AcAc) or with 2 g/L of glucose (Glc). […]

[3] = test system: human monocytes differentiated into macrophages under lactic acidosis (LA-Mφ); test: Metabolite quantification in culture supernatants and acetyl-CoA in lysates; type: cell-based
Method: (§1) Peripheral blood mononuclear cells (PBMC) were obtained from healthy human volunteers (Blood collection center, Angers, France; agreement ANG-2017-01) by standard density-gradient centrifugation on lymphocyte separation medium (Eurobio, Courtaboeuf, France). CD14+ monocytes were then isolated by positive magnetic cell-sorting (Miltenyi Biotec, Bergisch Gladbach, Germany). Monocytes (1×10^6 cells/mL) were cultured in complete medium (CM) consisting of RPMI 1640 (Lonza, Verviers, Belgium) supplemented with 10% fetal calf serum (FCS) (Eurobio), 2 mM L-glutamine, 1 mM sodium pyruvate, 0.1 mM non-essential amino acids, 10 mM HEPES, 100 U/mL penicillin and 100 μg/mL streptomycin (all from Lonza) in the presence of 50 ng/mL GM-CSF (R&D Systems, Minneapolis, MN).
(§2) Experiments were performed in the presence of 10 mM lactic acid (Sigma-Aldrich, St Louis, MO) resulting in a pHe of 6.5 to generate LA-Mφ (lactic acidosis conditioning), 12.35 mM HCl to reach a final pHe of 6.5 and to generate HCl-Mφ(acidosis conditioning), 10 mM sodium lactate (Sigma-Aldrich) to generate lactate-Mφ (lactosis conditioning, pH 7.3), in the absence or presence of 5 mM lithium acetoacetate (AcAc) (Sigma-Aldrich, St Louis, MO).
The levels of glucose, glutamine, free L-amino acids and lactate in cell culture supernatants, and of acetyl-CoA in whole-cell lysates were determined, together with the intracellular ADP/ATP ratio, with enzymatic assays (Abcam), according to the manufacturer's instructions. […] Acetoacetate concentrations were quantified with β-hydroxybutyrate dehydrogenase (3-HBDH) (Roche Applied Science), an enzyme that catalyzes the reversible reduction of acetoacetate to β-hydroxybutyrate in the presence of excess NADH, with the concomitant oxidation of NADH. The progress of the reaction was monitored by measuring the decrease in 340 nm absorbance due to the conversion of NADH into NAD. AcAc consumption was determined by subtracting the concentration of AcAc in cell culture supernatants from that in cell-free culture supernatants.

[4] = test system: human monocyte-derived macrophages (Mφ, LA-Mφ); test: Cytokine secretion after LPS stimulation (ELISA); type: cell-based; settings: day 5, LPS 16 h, FIG. 3
Method: as §1, §2
Day 5 GM-Mϕ, GM+LA-Mϕ and GM+LA-Mϕ+AcAc were stimulated with 200 ng/mL LPS (Sigma-Aldrich). Cytokines were quantified by ELISA (R&D Systems) in the supernatants collected at 16 h.

[5] = test system: PBMC from septic shock patients; test: Intracellular ATP in PBMC from septic shock patients; type: cell-based, human; settings: 5 mM AcAc, normalized on 0.5 g/L glucose, FIG. 1B
Method: The intracellular levels of ATP in whole-cell lysates were determined with enzymatic assays (Abcam, Cambridge, UK), according to the manufacturer's instructions. ATP was quantified in (i) macrophages generated in the absence (Mφ) or presence of lactic acid (LA-Mφ) or of lactic acid and acetoacetate (LA-Mφ+AcAc), (ii) macrophages with or without depolarized mitochondria (“Depol” and “Pol” populations, respectively) isolated from day 3 LA-Mφ by flow cytometry using MitoTracker Green and MitoTracker Deep Red probes (purity>99%) and, (iii) PBMC isolated from septic shock patients (n=3) were cultured for 24 h in a medium containing 0.5 g/L glucose, supplemented with 5 mM of acetoacetate (AcAc) or with 2 g/L of glucose (Glc). Results are normalized on the condition 0.5 g/L glucose (None).
Peripheral blood mononuclear cells (PBMC) from septic patients and healthy subjects were purified by standard density-gradient centrifugation on lymphocyte separation medium (Eurobio, Courtaboeuf, France). […] After 24 h culture, the percentage of cells with depolarized mitochondria was assessed as described above. After 3 days of culture, intracellular ATP has been quantified as described above.

[6] = test system: PBMC from septic shock patients; test: Apoptosis of PBMC from septic shock patients (7-AAD, Annexin-V flow cytometry); type: cell-based, human; settings: 5 mM AcAc, FIG. 4E
Method: Apoptosis was assessed by flow cytometry in freshly purified PBMC or after 3-day culture with or without AcAc. Cells were labeled with 7-AAD, Annexin-V FITC and anti-CD14 APC monoclonal antibody (all from BD Biosciences, San Jose, CA) and apoptotic monocytes were defined as CD14+ Annexin-V+ cells.
Peripheral blood mononuclear cells (PBMC) from septic patients and healthy subjects were purified by standard density-gradient centrifugation on lymphocyte separation medium (Eurobio, Courtaboeuf, France). PBMC were cultured for 24 h in a medium consisting of RPMI 1640 medium with L-glutamine and without glucose (Lonza, Verviers, Belgium) and supplemented with 6% FCS (Eurobio), 3% autologous plasma, 0.5 g/L glucose, 100 U/mL penicillin and 100 μg/mL streptomycin (all from Lonza) in the presence of 2 ng/mL GM-CSF (R&D Systems). In some experiments, the culture medium was supplemented with 5 mM AcAc or adjusted to 4 g/L glucose. After 24 h culture, the percentage of cells with depolarized mitochondria was assessed as described above. After 3 days of culture, intracellular ATP has been quantified as described above.

CC(=O)CC(=O)[O-].[Li+] [AcAc, lithium acetoacetate]
mitochondrial depolarization [1]: did not exhibit the mitochondrial depolarization
intracellular levels of ATP [2]: restored the intracellular levels of ATP
uptake of glucose and amino acids and production of lactate ([3]; LA-Mφ in the presence of 5 mM AcAc, FIG. 2A-D): retain a partial capacity to take up glucose and amino acids and to produce lactate
AcAc consumption by cells ([3]; LA-Mφ+AcAc culture supernatants, days 1 and 3, FIG. 2F): consume AcAc
intracellular AcCoA levels ([3]; reduction induced by LA, in the presence of 5 mM AcAc): prevented the reduction of intracellular AcCoA levels
combined effect of AcAc and lactic acid on capacity to produce inflammatory cytokines and trophic factors ([4]; LA-Mφ+AcAc): acted synergistically
cytokine phenotype of monocytes differentiated in the presence of AcAc ([4]; ELISA): TNFαhigh IL-1βhigh IL-6high OSMhigh and VEGFhigh phenotype
levels of intracellular ATP [5]: increased
protection of patient PBMCs from death by apoptosis [6]: drastically protects
